Test results from US20230203485A1, “METHODS FOR MODULATING MHC-I EXPRESSION AND IMMUNOTHERAPY USES THEREOF” (Dana-Farber Cancer Institute, Inc., priority 2020, published 2023).

Assays:
[1] = system: class I pathway and IFN-γ pathway proteins (STAT1/p-STAT1) in MCC lines; experiment: Whole proteome analysis (TMT LC-MS/MS) of MCC lines with and without IFNγ; assay type: cell-based, human; details: MCC lines non-IFN-responsive by flow cytometry
Experimental: FIG. 2D is a proteomics heatmap depicting the relative expression of key IFN-γ pathway components in 4 of the MCC lines, both at baseline and after IFN-γ treatment.
FIG. 2E comprises graphs summarizing a targeted analysis of normalized STAT1 peptide counts (left) and STAT-Y701y phosphosite counts (right) between untreated and IFN-γ-treated cell lines.
Protein expression of MCC cell lines was assessed as described previously (Mertins et al. (2018) Nature Protocols 13 (7): 1632-61. Briefly, cell pellets of MCC cell lines with and without IFNγ treatment were lysed in 8M Urea and digested to peptides using LysC and Trypsin (Promega). 400 μg peptides were labeled with TMT10 reagents (Thermo Fisher, 126-MCC290, 127N-MCC350_IFN, 127C MCC275_IFN, 128N MCC275, 128C MCC350, 129N_MCC301_IFN, 129C-MCC277, 130N-MCC290_IFNy, 130C MCC277 IFN, 131 MCC301) and then pooled for subsequent fractionation and analysis. Pooled peptides were separated into 24 fractions using offline high pH reversed phase fractionation. 1 μg per fraction was loaded onto an analytical column (20-30 cm, 1.9 μm C18 Reprosil beads (Dr. Maisch HPLC GmbH), packed in-house PicoFrit 75 μM inner diameter, 10 μM emitter (New Objective)). […] During data dependent acquisition, peptides were analyzed on a Fusion Lumos (Thermo Scientific). […]

[2] = system: HLA-I and IFN pathway proteins; experiment: Whole proteome analysis of MCC cell lines with and without IFN-γ; assay type: cell-based, human
Experimental: Protein expression of MCC cell lines was assessed. Briefly, cell pellets of MCC cell lines with and without IFN-γ treatment were lysed in 8M Urea and digested to peptides using LysC and Trypsin (Promega). 400 μg peptides were labeled with TMT10 reagents (Thermo Fisher, 126-MCC-290, 127N-MCC-350_IFN, 127C MCC-275_IFN, 128N MCC-275, 128C MCC-350, 129N_MCC-301_IFN, 129C-MCC-277_IFN, 130N-MCC-290_IFNy, 130C MCC-277, 131 MCC-301) and then pooled for subsequent fractionation and analysis. Pooled peptides were separated into 24 fractions using offline high pH reversed phase fractionation. 1 μg per fraction was loaded onto an analytical column (20-30 cm with 1.9 μm C18 Reprosil beads [Dr. Maisch HPLC GmbH], packed in-house, PicoFrit 75 μM inner diameter, 10 μM emitter [New Objective]). Peptides were eluted with a linear gradient (EasyNanoLC 1000 or 1200, Thermo Scientific) ranging from 6-30% Buffer B (either 0.1% formic acid or 0.5% AcOH and 80% or 90% acetonitrile) over 84 min 30-90% Buffer B over 9 min, and held at 90% Buffer B for 5 min at 200 nl/min. During data dependent acquisition, peptides were analyzed on a Fusion Lumos (Thermo Scientific). Full scan MS was acquired at a 60,000 from 300-1,800 m/z. AGC target was set to 4e5 and 50 ms. […]

Row | Substance | STAT1/p-STAT1 protein expression [1] | class I upregulation in matched proteomes ([2]; 4 MCC lines) | HLA-I and IFN pathway upregulation at the protein level ([2]; MCC-350 (non-IFN-γ-responsive), including STAT1 phosphorylation)
1 | IFN-y: type II interferon, recombinant human, used to treat MCC cells | lack of IFN-induced STAT1/p-STAT1 protein expression |  | 
2 | IFN-γ: interferon gamma used to stimulate MCC cell lines |  | confirmed | global lack of IFN-induced HLA-I and IFN pathway upregulation
